In US20040171566A1, “Antisense modulation of p38 mitogen activated protein kinase expression” (priority 1999, published 2004):
In the oligonucleotide strings, read from the 5' end, every base follows the letter of its sugar. An asterisk marks phosphorothioate; unmarked linkages are phosphodiester. Other units and linkages are bracketed, terminal groups are in braces. A string of capitals states the bases alone. e = 2'-O-(2-methoxyethyl) (MOE); [5mC] = 5-methylcytosine; d = 2'-deoxy (DNA)

Key:
human p38β mRNA [1] = assay: Human p38β mRNA expression in T-24 cells; conditions: for % P38β mRNA EXPRESSION: initial screen of human p38α oligonucleotides
human p38α mRNA = assay: Human p38α mRNA expression in T-24 cells; conditions: for % P38α mRNA EXPRESSION: initial screen of human p38α oligonucleotides
mouse p38β mRNA = assay: Inhibition of mouse p38β mRNA expression in bEND.3 cells, Northern blot; format: cell-based; conditions: mouse p38β antisense oligonucleotides, screened as in Example 4
Protocol: bEND.3, a mouse endothelial cell line (gift of Dr. Werner Risau; see Montesano et al., Cell, 1990, 62, 435, and Stepkowski et al., J. Immunol., 1994, 153, 5336) were grown in high-glucose DMEM (Life Technologies, Gaithersburg, Md.) medium containing 10% fetal bovine serum (FBS) and 1% Penicillin/Streptomycinin. Cells were plated at approximately 2×10^5 cells per 100 mm dish. Within 48 hours of plating, the cells were washed with phosphate-buffered saline (Life Technologies). Then, Opti-MEM7 medium containing 3 μg/mL LIPOFECTIN^7 and an appropriate amount of oligonucleotide were added to the cells. As a control, cells were treated with LIPOFECTIN^7 without oligonucleotide under the same conditions and for the same times as the oligonucleotide-treated samples.
After 4 hours at 37° C., the medium was replaced with high glucose DMEM medium containing 10% FBS and 1% Penicillin/Streptomycinin. The cells were typically allowed to recover overnight (about 18 to 24 hours) before RNA and/or protein assays were performed as described in Example 2. The p38α, p38β and G3PDH probes used were identical to those described in Example 2.
Rat p38α antisense oligonucleotides were screened in bEND.3 cells for inhibition of p38α and p38β mRNA expression. The concentration of oligonucleotide used was 100 nM. Oligonucleotides 21844 (SEQ ID NO. 47), 21845 (SEQ ID NO. 48), 21872 (SEQ ID NO. 51), 21873 (SEQ ID NO. 52), 21875 (SEQ ID NO. 54), and 21876 (SEQ ID NO.
Mouse p38β antisense sequences were screened in bEND.3 cells as described in Example 4.

human p38β mRNA [2] = assay: Inhibition of human p38β mRNA expression in HUVEC cells, Northern blot; format: cell-based
Protocol: The human Jurkat T-cell line (American Type Culture Collection, Manassas, Va.) was maintained in RPMI 1640 growth media supplemented with 10% fetal bovine serum (FBS; Hyclone, Logan, Utah). HUVEC cells (Clonetics, San Diego, Calif.) were cultivated in endothelial basal media supplemented with 10% FBS (Hyclone, Logan, Utah).
HUVEC cells were allowed to reach 75% confluency prior to use. The cells were washed twice with warm (37° C.) OPTI-MEM™ (Life Technologies). The cells were incubated in the presence of the appropriate culture medium, without the growth factors added, and the oligonucleotide formulated in LIPOFECTIN7 (Life Technologies), a 1:1 (w/w) liposome formulation of the cationic lipid N-[1-(2,3-dioleyloxy)propyl]-n,n,n-trimethylammonium chloride (DOTMA), and dioleoyl phosphotidylethanolamine (DOPE) in membrane filtered water. HUVEC cells were treated with 100 nM oligonucleotide in 10 μg/ml LIPOFECTIN7. Treatment was for four hours.
Total mRNA was isolated using the RNEASY7 Mini Kit (Qiagen, Valencia, Calif.; similar kits from other manufacturers may also be used), separated on a 1% agarose gel, transferred to HYBOND™-N+ membrane (Amersham Pharmacia Biotech, Piscataway, N.J.), a positively charged nylon membrane, and probed. p38 MAPK probes were made using the Prime-A-Gene7 kit (Promega Corporation, Madison, Wis.), a random primer labeling kit, using mouse p38α or p38β cDNA as a template. A glyceraldehyde 3-phosphate dehydrogenase (G3PDH) probe was purchased from Clontech (Palo Alto, Calif.), Catalog Number 9805-1. The fragments were purified from low-melting temperature agarose, as described in Maniatis, T., et al., Molecular Cloning: A Laboratory Manual, 1989. The G3PDH probe was labeled with REDIVUE™ ^32P-dCTP (Amersham Pharmacia Biotech, Piscataway, N.J.) and Strip-EZ labelling kit (Ambion, Austin, Tex.). mRNA was quantitated by a PhosphoImager (Molecular Dynamics, Sunnyvale, Calif.).
Every oligonucleotide tested gave at least 50% inhibition.
Oligonucleotides 17893 (SEQ ID NO. 27), 17899 (SEQ ID NO:33), 17904 (SEQ ID NO. 38), and 17907 (SEQ ID NO. 41) were chosen for dose response studies. HUVEC cells were cultured and treated as described in Example 2 except that the oligonucleotide concentration was varied as shown in Table 6. The Lipofectin7/Oligo ratio was maintained at 3 μg Lipofectin7/100 nM oligo, per ml. mRNA was measured by Northern blot as described in Example 2.

mouse p38α mRNA = assay: Mouse p38α mRNA levels in bEND.3 cells, quantitative real-time PCR; format: cell-based; set-up: % Inhib. mouse p38α: concentration or dose not given beside the values; conditions: bEND.3 cells, mRNA by quantitative real-time PCR, average of two experiments
In short: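 Mouse bEND.3 cells, antisense oligonucleotide-treated; p38α mRNA measured by one-step real-time RT-PCR (RT 30 min at 48 °C, then 40 cycles) with a FAM/TAMRA probe. Levels normalized to GAPDH or RiboGreen total RNA, and percent inhibition derived from standard curves of untreated-control mRNA.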

rat p38α mRNA = assay: Rat p38α mRNA levels in NR-8383 cells, quantitative real-time PCR; format: cell-based; conditions: 300 nM oligonucleotide with FuGENE 6, 24 hours, mRNA by quantitative real-time PCR, average of two experiments
[3] = initial screen of human p38β oligonucleotides
[4] = dose 50 nM, relative to control oligonucleotide = 100%
[5] = dose 100 nM, relative to control oligonucleotide = 100%
[6] = dose 200 nM, relative to control oligonucleotide = 100%
[7] = 100 nM oligonucleotide in 10 μg/ml LIPOFECTIN, four hours, Northern blot

Row | Substance | % p38β mRNA Expression (human p38β mRNA [1]; [3]) | % p38α mRNA EXPRESSION (human p38α mRNA; [3]) | % P38β mRNA EXPRESSION (human p38β mRNA [1]) | % P38α mRNA EXPRESSION (human p38α mRNA) | also measured
1 | CoCoCoToGsCsAsGsCsCsGsCsTsGsCsGoGoCoAoC (antisense e[5mC]e[5mC]e[5mC]eTeG*d[5mC]*dA*dG*d[5mC]*d[5mC]*dG*d[5mC]*dT*dG*d[5mC]*eGeGe[5mC]eAe[5mC]) [ISIS 100802] | 47% | 78% | – | – | % p38β mRNA Inhibition (mouse p38β mRNA): 35%
2 | GCAACAAGAGGCACTTGAAT (eG*e[5mC]*eA*eA*e[5mC]*dA*dA*dG*dA*dG*dG*d[5mC]*dA*d[5mC]*dT*eT*eG*eA*eA*eT; antisense) [ISIS 100877] | – | – | 95% | 47% | –
3 | ACAGACGGAGCCGTAGGCGC (antisense eAe[5mC]eAeGeA*d[5mC]*dG*dG*dA*dG*d[5mC]*d[5mC]*dG*dT*dA*eGeGe[5mC]eGe[5mC]) [ISIS 107869] | 60% | 93% | – | – | –
4 | ACGCTCGGGCACCTCCCAGA (phosphorothioate gapmer, further chemistry not given here) [ISIS 100861] | – | – | 47% | 60% | –
5 | TTCTCTTATCTGAGTCCAAT (chimeric deoxy gapped, phosphorothioate, further chemistry not given here) [ISIS 100872] | – | – | 77% | 37% | % p38α mRNA EXPRESSION (human p38α mRNA; dose 50 nM): 45%; % p38α mRNA EXPRESSION (human p38α mRNA; dose 100 nM): 18%; % p38α mRNA EXPRESSION (human p38α mRNA; dose 200 nM): 17%
6 | CAGGAATTGAACGTGCTCGT (antisense e[5mC]eAeGeGeA*dA*dT*dT*dG*dA*dA*d[5mC]*dG*dT*dG*e[5mC]eTe[5mC]eGeT) [ISIS 107873] | 58% | 120% | – | – | % p38β mRNA Expression (human p38β mRNA [1]; [4]): 69%; % p38β mRNA Expression (human p38β mRNA [1]; [5]): 41%; % p38β mRNA Expression (human p38β mRNA [1]; [6]): 23%
7 | AATGATGGACTGAAATGGTC (eA*eA*eT*eG*eA*dT*dG*dG*dA*d[5mC]*dT*dG*dA*dA*dA*eT*eG*eG*eT*e[5mC]; antisense) [ISIS 100863] | – | – | 67% | 49% | –
8 | CTCACAGTCTTCATTCACAG (chimeric deoxy gapped, phosphorothioate, further chemistry not given here) [ISIS 100867] | – | – | 33% | 58% | –
9 | AGGTGCTCAGGACTCCATCT (chimeric deoxy gapped, phosphorothioate, further chemistry not given here) [ISIS 100876] | – | – | 93% | 77% | –
10 | CACGTAGCCTGTCATTTCAT (chimeric deoxy gapped, phosphorothioate, further chemistry not given here) [ISIS 100868] | – | – | 60% | 47% | –
11 | AGTCAAAGACTGAATATAGT (eA*eG*eT*e[5mC]*eA*dA*dA*dG*dA*d[5mC]*dT*dG*dA*dA*dT*eA*eT*eA*eG*eT; antisense) [ISIS 100871] | – | – | 96% | 57% | –
12 | ATCCTGAGCTCACAGTCCTC (chimeric, phosphorothioate, further chemistry not given here) [ISIS 17899] | 56% | 117% | – | – | % mRNA EXPRESSION (human p38β mRNA [2]; [7]): 5%; % mRNA Inhibition (human p38β mRNA [2]; [7]): 95%; % mRNA EXPRESSION (human p38β mRNA [2]; dose 10 nM): 37%; % mRNA Inhibition (human p38β mRNA [2]; dose 10 nM): 63%; % mRNA EXPRESSION (human p38β mRNA [2]; dose 25 nM): 23%; % mRNA Inhibition (human p38β mRNA [2]; dose 25 nM): 77%; % mRNA EXPRESSION (human p38β mRNA [2]; dose 50 nM): 18%; % mRNA Inhibition (human p38β mRNA [2]; dose 50 nM): 82%; % mRNA EXPRESSION (human p38β mRNA [2]; dose 100 nM): 21%; % mRNA Inhibition (human p38β mRNA [2]; dose 100 nM): 79%; % p38β mRNA Expression (human p38β mRNA [1]; [4]): 89%; % p38β mRNA Expression (human p38β mRNA [1]; [5]): 36%; % p38β mRNA Expression (human p38β mRNA [1]; [6]): 15%
13 | CATCATCAGGATCGTGGTAC (chimeric deoxy gapped, phosphorothioate, further chemistry not given here) [ISIS 100873] | – | – | 70% | 34% | % p38α mRNA EXPRESSION (human p38α mRNA; dose 50 nM): 19%; % p38α mRNA EXPRESSION (human p38α mRNA; dose 100 nM): 12%; % p38α mRNA EXPRESSION (human p38α mRNA; dose 200 nM): 8%
14 | GGCACAAAGCTGATGACTTC (chimeric deoxy gapped, phosphorothioate, further chemistry not given here) [ISIS 100875] | – | – | 90% | 39% | % p38α mRNA EXPRESSION (human p38α mRNA; dose 50 nM): 30%; % p38α mRNA EXPRESSION (human p38α mRNA; dose 100 nM): 13%; % p38α mRNA EXPRESSION (human p38α mRNA; dose 200 nM): 8%
15 | GTACGTTCTGCGCGCGTGGA (antisense eGeTeAe[5mC]eG*dT*dT*d[5mC]*dT*dG*d[5mC]*dG*d[5mC]*dG*d[5mC]*eGeTeGeGeA) [ISIS 107871] | 60% | 111% | – | – | % p38β mRNA Expression (human p38β mRNA [1]; [4]): 41%; % p38β mRNA Expression (human p38β mRNA [1]; [5]): 42%; % p38β mRNA Expression (human p38β mRNA [1]; [6]): 10%
16 | CAGTTGAGCATGATCTCAGG (antisense e[5mC]eAeGeTeT*dG*dA*dG*d[5mC]*dA*dT*dG*dA*dT*d[5mC]*eTe[5mC]eAeGeG) [ISIS 107876] | 127% | 137% | – | – | –
17 | ACGTTGCTGGGCTTCAGGTC (antisense eAe[5mC]eGeTeT*dG*d[5mC]*dT*dG*dG*dG*d[5mC]*dT*dT*d[5mC]*eAeGeGeTe[5mC]) [ISIS 107874] | 61% | 100% | – | – | % p38β mRNA Expression (human p38β mRNA [1]; [4]): 75%; % p38β mRNA Expression (human p38β mRNA [1]; [5]): 34%; % p38β mRNA Expression (human p38β mRNA [1]; [6]): 23%
18 | TGAATGTATATACTTTAGAC (eT*eG*eA*eA*eT*dG*dT*dA*dT*dA*dT*dA*d[5mC]*dT*dT*eT*eA*eG*eA*e[5mC]; antisense) [ISIS 100866] | – | – | 65% | 55% | –
19 | CATCCCACTGACCAAATATC (chimeric deoxy gapped, phosphorothioate, further chemistry not given here) [ISIS 100869] | – | – | 100% | 61% | –
20 | TCCAACAGACCAATCACATT (phosphorothioate gapmer, further chemistry not given here) [ISIS 100864] | – | – | 70% | 66% | % Inhib. mouse p38α (mouse p38α mRNA): 83%; % Inhib. rat p38α (rat p38α mRNA): 57%
